These results are taken from paper PMC12024154, “A Study of Antioxidant, Antihyperlipidemic, and Anti-Glycation Effects of Alkylsulfonic Acids with Quinobenzothiazinyl Substituents: In Vitro and In Silico Investigations” (Antioxidants, 2025).

Several values for one entry are separate records, joined by “and”; a condition that tells them apart may be missing. Equal entries are not always repeated. Marks after values point to notes of the source that are not given here.

Assay [1] can be described thus: Chelating capacity (ferrozine) assay. As to conditions: 0.0245 to 0.268 μM. How it is done: Chelating capacity assay is conducted following the method outlined by Chong et al. with minor modifications. Samples of 0.1 mL with concentrations ranging from 0.0245 to 0.268 μM were combined with 0.5 mL of a […] and 0.2 mL of a 5 mM ferrozine solution. Then, a 10-min incubation at room temperature, absorbance was recorded at 562 nm using a blank solution in a 96-well plate reader. EDTA served as a positive control. The negative control consists of a sample devoid of any substances, including EDTA and synthetic compounds. The percentage of ferrous chelation was calculated using the Equation (1).

A further assay deals with BSA-glucose. Nature of the assay: BSA-glucose antiglycation assay. Also noted: species or system bovine. The note with it: 7 days, 37 °C, pH 7.4, n = 3; read-out: BSA-glucose glycation IC50. As for the experimental part:
The BSA-glucose assay is conducted according to the methodology outlined by Mridula et al.. […] The reaction mixture was thoroughly mixed and incubated for 5 min. Following incubation, 0.5 mL of sodium azide was added to each tube. The tubes underwent incubation at 37 °C in the absence of light for a duration of seven days. Aminoguanidine is used as a positive control. Following a seven-day incubation period, the samples were analyzed with the Omega microplate reader (BMG LABTECH, Ortenberg, Germany), measuring fluorescence intensity at an excitation wavelength of 370 nm and an emission wavelength of 440 nm. The experiment was conducted in triplicate.

Assay [2] in a line: DPPH radical scavenging assay. As to conditions: average inhibition, concentration range 0.0245 to 0.268 μM, n = 3. As for the experimental part:
The DPPH (2,2-diphenyl-1-picrylhydrazyl) radical scavenging assay was conducted to evaluate the antioxidant activity of compounds 5–12 following the method outlined by Chong et al. with minor modifications. A 1 mL sample with a concentration range of 0.0245 to 0.268 μM was introduced to a 1 mL methanol solution of DPPH ([…]) and vortexed. Following a 20-min incubation at 25 °C, absorbance was assessed at 527 nm using a UV-vis spectrophotometer, with blank as reference. Ascorbic acid served as a positive control. The negative control consists of a setup without samples (ascorbic acid and synthetic compounds). The percentage of DPPH free radical inhibition was determined using Equation (1) provided below.
% of DPPH radical scavenging activity was calculated using the following equation:(1) AA%=100−[Abs sample−Abs blank100/Abs control] • Equation (1) where: • Abs control = absorbance of the control. • Abs sample = absorbance of the sample.

The target in a further assay is T1, pancreatic lipase (Sus scrofa, UniProt P00591).
T1 construct: The enzyme source utilized was porcine pancreas powder; from tissue; host or cells: porcine pancreas (powder)
T1 sequence (P00591 1-450): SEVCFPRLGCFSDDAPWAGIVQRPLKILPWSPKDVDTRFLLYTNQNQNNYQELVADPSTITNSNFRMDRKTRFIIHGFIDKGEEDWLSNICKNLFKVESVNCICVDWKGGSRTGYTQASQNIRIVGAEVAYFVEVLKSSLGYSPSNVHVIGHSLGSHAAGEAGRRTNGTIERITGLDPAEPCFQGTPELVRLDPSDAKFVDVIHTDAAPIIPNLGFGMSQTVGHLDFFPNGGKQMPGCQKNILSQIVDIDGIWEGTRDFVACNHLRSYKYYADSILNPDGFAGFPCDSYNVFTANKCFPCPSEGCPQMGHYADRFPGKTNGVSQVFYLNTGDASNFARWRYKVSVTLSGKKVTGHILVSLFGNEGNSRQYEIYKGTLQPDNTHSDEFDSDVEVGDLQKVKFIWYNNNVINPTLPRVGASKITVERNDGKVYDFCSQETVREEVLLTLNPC
Nature of the assay: In vitro pancreatic lipase inhibition assay. Format: biochemical. As to conditions: porcine pancreas powder, pNPB substrate, n = 3. As for the experimental part:
The pancreatic lipase inhibition assay is conducted following the method outlined by Ajayi et al. (2022) with minor modifications. The enzyme source utilized was porcine pancreas powder at a concentration of 0.1 mg·mL^−1 in Tris–HCl buffer, pH 8.0. In a 96-well plate, 50 μL of phosphate–buffer solution (pH 7.0), 50 μL of pNPB (500 μM), and 50 μL of test samples 5–12 with concentrations ranging from 0.0245 to 0.268 μM were pipetted and mixed thoroughly. Fifty microliters of pancreatic enzyme were added to the resultant mixture and incubated at room temperature for 30 min. The resulting yellow p-nitrophenol was measured spectrophotometrically at 405 nm. Control was conducted concurrently without the addition of a test sample. […] PL inhibition was determined using the following formula: PL inhibition (%) = [(Activity of control − activity of test)/activity of control] × 100. The IC50 is determined utilizing GraphPad 10 software (GraphPad Software, LLC, San Diego, CA, USA).

Assay [3] concerns differentiated 3T3-L1 adipocytes. Nature of the assay: Intracellular ROS production (DCFH-DA, AAPH-stimulated). The assay is classed as cell-based. As to conditions: 24 h treatment. As for the experimental part:
Differentiation of 3T3-L1 cells was performed within one week through culturing in MDI medium, which consisted of 0.5 mM 3-isobutyl-1-methylxanthine, 1 μM dexamethasone, and 1 μg/mL insulin, for 48 h in 10% FBS-DMEM. Subsequently, the cells were transferred to fresh 10% FBS and 90% DMEM supplemented with 1 μg/mL insulin.
On day 8 of differentiation, intracellular ROS levels in 3T3 L1 cells were assessed using the oxidation-sensitive fluorogenic probe 2′,7′-dichlorodihydrofluorescein-diacetate (DCFH-DA), following a method established by Forbes-Hernández et al., with minor modification. Post-differentiation, the cells were treated with the respective doses of the compounds for a period of 24 h. Following this, the cells underwent incubation with DCFH-DA (25 μM) at 37 °C for a duration of 30 min in the absence of light. Consequently, the cells were stimulated with 1 mM AAPH as a ROS initiator for a duration of 1 h. The density of light was measured using a spectrofluorometer with an excitation wavelength of 480 nm and an emission wavelength of 530 nm.

Consider `O=C(O)CN(CCN(CC(=O)O)CC(=O)O)CC(=O)O` [EDTA], for which, in assay [1], the Chelating activity result is given as “increasing inhibitory action with increased concentration”.
In the case of `O=S(=O)(O)CCCN1c2ccc(F)cc2Sc2cc3ccccc3nc21` [Compound 6, 3-(9-fluoroquino[3,2-b]benzo[1,4]thiazin-6-yl)propane-1-sulfonic acid], the values for the IC50 in the assay on BSA-glucose and on pancreatic lipase were 1570 nM and 1240 nM, respectively. Further, the DPPH mean inhibition in assay [2] was determined as 3.45%. Further, the “% ROS Generation” value is 137.15 ± 9.37 ^a % in assay [3] (0.02 μM); 126.66 ± 2.43 ^a % in assay [3] (0.06 μM); 88.31 ± 3.13 ^b % in assay [3] (0.1 μM); 37.15 ± 9.37% and 69.68 ± 7.12 ^c % in assay [3] (0.2 μM); 63.73 ± 1.04% and 63.73 ± 1.04 ^c % in assay [3] (0.25 μM).
For the compound `O=S(=O)(O)CCCN1c2ccc(Cl)cc2Sc2cc3ccccc3nc21` [Compound 7, 3-(9-chloro[3,2-b]benzo[1,4]thiazin-6-yl)propane-1-sulfonic acid], the IC50 is 4130 nM in the assay on BSA-glucose and 890 nM on pancreatic lipase. This compound also registered a DPPH mean inhibition in assay [2] of 8.47%. The “% ROS Generation” value in assay [3] (0.02 μM) is 143.18 ± 10.65% and 143.18 ± 10.65 ^a %; in assay [3] (0.06 μM) it was 113.48 ± 10.27 ^a %; in assay [3] (0.1 μM), 33.27 ± 6.16 ^b %; in assay [3] (0.2 μM), 15.63 ± 2.74 ^b %; in assay [3] (0.25 μM), 14.96 ± 1.25% and 14.96 ± 1.25 ^b %.
`O=S(=O)(O)CCCCN1c2ccccc2Sc2cc3ccccc3nc21` [Compound 9, 4-(quino[3,2-b]benzo[1,4]thiazin-6-yl)butane-1-sulfonic acid]: the IC50 in the assay with BSA-glucose is 1090 nM; on pancreatic lipase, 670 nM and 477 nM. Further, in assay [2], the DPPH mean inhibition came to 2.45%. Besides, the “% ROS Generation” value is 169.62 ± 13.81% and 169.62 ± 13.81 ^a % in assay [3] (0.02 μM); 151.45 ± 25.13 ^ab % in assay [3] (0.06 μM); 151.54 ± 32.18 ^ab % in assay [3] (0.1 μM); 61.36 ± 1.58 ^c % in assay [3] (0.2 μM); 26.38 ± 1.73% and 26.38 ± 1.73 ^c % in assay [3] (0.25 μM).
For the compound `CSc1ccc2c(c1)Sc1cc3ccccc3nc1N2CCCCS(=O)(=O)O` [Compound 12, 4-(9-methylthio[3,2-b]benzo[1,4]thiazin-6-yl)butane-1-sulfonic acid], the half-inhibitory concentration (IC50) in the assay on BSA-glucose is 1800 nM; against pancreatic lipase it was 566 nM. In assay [2], this compound gave a DPPH mean inhibition of 5.53%. Moreover, the “% ROS Generation” value in assay [3] (0.02 μM) is 119.82 ± 5.12% and 119.82 ± 5.12 ^a %; in assay [3] (0.06 μM), 102.85 ± 1.47 ^b %; in assay [3] (0.1 μM), 97.18 ± 2.61 ^b %; in assay [3] (0.2 μM) it was 80.38 ± 1.72 ^c %; in assay [3] (0.25 μM), 60.12 ± 1.74% and 60.12 ± 1.74 ^d %.
Turning to `O=S(=O)(O)CCCN1c2ccccc2Sc2cc3ccccc3nc21` [Compound 5, 3-(quino[3,2-b]benzo[1,4]thiazin-6-yl)propane-1-sulfonic acid], the values for the IC50 with BSA-glucose and at pancreatic lipase were 790 nM and 1570 nM, respectively. Moreover, the DPPH mean inhibition in assay [2] amounted to 5.49%. Besides, the “% ROS Generation” value in assay [3] (0.02 μM) is 208.69 ± 13.07% and 208.69 ± 13.07 ^a %; in assay [3] (0.06 μM), 142.87 ± 15.43 ^b %; in assay [3] (0.1 μM) it was 76.83 ± 0.0 ^c %; in assay [3] (0.2 μM), 39.72 ± 6.30 ^c %; in assay [3] (0.25 μM) it was 39.24 ± 0.0 ^c %.
`O=S(=O)(O)CCCCN1c2ccc(Cl)cc2Sc2cc3ccccc3nc21` [Compound 11, 4-(9-chloro[3,2-b]benzo[1,4]thiazin-6-yl)butane-1-sulfonic acid]: the values for the half-inhibitory concentration (IC50) in the assay on BSA-glucose and on pancreatic lipase were 1890 nM and 870 nM, respectively. In addition, in assay [2], the DPPH mean inhibition was 8.47%. In addition, the “% ROS Generation” value in assay [3] (0.02 μM) was 104.90 ± 5.3% and 104.90 ± 5.31 ^a %; in assay [3] (0.06 μM), 35.75 ± 11.03 ^c %; in assay [3] (0.1 μM), 46.64 ± 6.13 ^bc %; in assay [3] (0.2 μM), 75.96 ± 2.21 ^ab %; in assay [3] (0.25 μM), 57.18 ± 1.66% and 57.18 ± 1.66 ^bc %.
On to `CSc1ccc2c(c1)Sc1cc3ccccc3nc1N2CCCS(=O)(=O)O` [Compound 8, 3-(9-methylthio[3,2-b]benzo[1,4]thiazin-6-yl)propane-1-sulfonic acid], for which the results for the IC50 in the assay on BSA-glucose and at pancreatic lipase were 980 nM and 1320 nM, respectively. In assay [2], the DPPH mean inhibition came to 7.36%. Also, the “% ROS Generation” value is 149.62 ± 6.71% and 149.62 ± 6.71 ^a % in assay [3] (0.02 μM); 101.04 ± 7.69 ^b % in assay [3] (0.06 μM); 71.47 ± 2.98 ^c % in assay [3] (0.1 μM); 62.94 ± 4.59 ^c % in assay [3] (0.2 μM); 50.89 ± 2.85% and 50.89 ± 2.85 ^d % in assay [3] (0.25 μM).
`O=S(=O)(O)CCCCN1c2ccc(F)cc2Sc2cc3ccccc3nc21` [Compound 10, 4-(9-fluoroquino[3,2-b]benzo[1,4]thiazin-6-yl)butane-1-sulfonic acid]: the values for the IC50 in the assay with BSA-glucose and against pancreatic lipase were 2240 nM and 477 nM, respectively. The compound further returned a DPPH mean inhibition in assay [2] of 6.21%. Also, the “% ROS Generation” value in assay [3] (0.02 μM) was 103.85 ± 1.17% and 103.85 ± 1.17 ^a %; in assay [3] (0.06 μM), 74.74 ± 2.90 ^b %; in assay [3] (0.1 μM) it was 69.81 ± 5.23 ^b %; in assay [3] (0.2 μM) it was 52.56 ± 4.14 ^c %; in assay [3] (0.25 μM), 47.16 ± 3.71% and 47.16 ± 3.71 ^c %.
With `N=C(N)NN` [aminoguanidine, reference compound], in the assay on BSA-glucose, the IC50 was found to be 310 nM.
`O=C1O[C@H]([C@@H](O)CO)C(O)=C1O` [ascorbic acid, reference compound] gave a DPPH mean inhibition in assay [2] of 54.24%.

In general, IC50 refers to the concentration that gives 50% inhibition.
